What was measured:
[1] = test system: oocytes; experiment: in vitro fertilization (IVF) assay; assay type: cell-based, mice; conditions: GVB oocytes after 18 hours culture, examined 20-22 hours after insemination; control 22%
Description: An in vitro fertilization (IVF) assay can be performed as follows:
Naked oocytes (NO) and cumulus enclosed oocytes (CEO) from immature mice (C57B1 16J×DBAJ/2)F, were isolated and cultured under the same conditions as described for the agonistic oocyte assay (Example 5). […] The dishes were then incubated under defined gas conditions (5% CO2) at 37° C. in a modified (α-MEM IVF-medium. Neither the insemination medium nor the IVF-medium contained hypoxanthine. Examination of the oocytes was carried out 20-22 hours after insemination, in order to check fertilization and to record the number of 2-cell embryos. The percentage fertilization (=fertilization rate) was determined from counts of oocytes that had cleaved into two-cell embryos.

[2] = test system: oocytes; experiment: agonistic oocyte assay (germinal vesicle breakdown); assay type: cell-based, mice; conditions: for relative GVB (relative effect): indexed against control (0) and FF-MAS (100); for GVB (percentage of oocytes undergoing germinal vesicle breakdown): oocytes cultured 24 hours at 37° C. in Hx-medium (3 mM hypoxanthine)
Description: An agonistic oocyte assay can be performed as follows:
Oocytes were obtained from immature female mice (C57BL/6J×DBA/2J F1, Bomholtgaard, Denmark) weighing 13-16 grams, that were kept under controlled temperature (20-22° C.), light (lights on 06.00-18.00) and relative humidity (50-70%). The mice received an intra-peritoneal injection of 0.2 ml gonadotropins (Gonal-F, Serono) containing 20 IU FSH and 48 hours later the animals were killed by cervical dislocation.
The ovaries were dissected out and the oocytes were isolated in Hx-medium (see below) under a stereo microscope by manual rupture of the follicles using a pair of 27 gauge needles. Spherical oocytes displaying an intact germinal vesicle (hereinafter designated GV) were divided in cumulus enclosed oocytes (hereinafter designated CEO) and naked oocytes (hereinafter designated NO) and placed in a-minimum essential medium (α-MEM without ribonucleosides, Gibco BRL, Cat. No. 22561) supplemented with 3 mg/ml bovine serum albumin (BSA, Sigma Cat. No. A-7030), 5 mg/ml human serum albumin (HSA, Statens Seruminstitute, Denmark), 0.23 mM pyruvate (Sigma, Cat. No S-8636), 2 mM glutamine (Flow Cat. No. 16-801), 100 IU/ml penicillin and 100 μg/ml streptomycin (Flow, Cat No. 16-700). This medium was supplemented with 3 mM hypoxanthine (Sigma Cat. No. H-9377) and designated Hx-medium.
The oocytes were rinsed three times in Hx-medium and oocytes of uniform size were divided into groups of CEO and NO. CEO and NO were cultured in 4-well multidishes (Nunclon, Denmark) in which each well contained 0.4 ml of Hx-medium. One control well (i.e., 35-45 oocytes cultured in identical medium with no addition of test compound) was always cultured simultaneously with 3 test wells (35-45 oocytes per well supplemented with test compound).
The oocytes were cultured in a humidified atmosphere of 5% CO2 in air for 24 hours at 37° C. By the end of the culture period, the number of oocytes with germinal vesicle (hereinafter designated GV), germinal vesicle breakdown (hereinafter designated GVB) and polar bodies (hereinafter designated PB), respectively, were counted using a stereomicroscope (Wildt, Leica MZ 12). The percentage GVB, defined as percentage of oocytes undergoing GVB per total number of oocytes in that well, was calculated as:
% GVB=(number of GVB+number of PB/total number oocytes)×100.
The % PB was defined as percentage of oocytes displaying one extruded polar body per total number of oocytes in that well.
The effect of the tested compounds has been indexed against control level and 4,4-5 dimethyl-5β-cholesta-8,14,24-trien-39-ol (hereinafter designated FF-MAS) where controls and FF-MAS are indexed to an effect of 0 and 100, respectively. The relative effect of the tested compound is calculated as follows: […]

[3] = test system: naked oocytes (NO); conditions: previously shown, Byskov et al. Nature 374 (1995), 559-562; cited from earlier work
[4] = test system: naked oocytes (NO); experiment: antagonistic oocyte assay (co-culture with FF-MAS); assay type: cell-based, mice; conditions: naked oocytes in Hx-medium with 5 μM FF-MAS in co-culture with test compound
Description: An antagonistic oocyte assay can be performed as follows:
20 Oocytes were obtained from immature female mice (C57BI/6J×DBA/2J F1-hybrids, Bomholtgaard, Denmark) weighing 13-16 grams, that were kept under controlled lighting and temperature. The mice received an intra-peritoneal injection of 0.2 ml gonadotropins (Gonal F, Serono, Solna, Sweden, containing 20 IU FSH, alternatively, Puregon, Organon, Swords, Ireland containing 20 IU FSH) and 48 hours later the animals were killed by cervical dislocation.
The ovaries were dissected out and the oocytes were isolated in Hx-medium (see below) under a stereo microscope by manual rupture of the follicles using a pair of 27 gauge needles. […]
By the end of the culture period, the number of oocytes with germinal vesicle (GV) or germinal vesicle breakdown (GVB) and those with polar body (PB) was counted using a stereo-microscope or an inverted microscope with differential interference contrast equipment. The percentage of oocytes with GVB+PB per total number of oocytes were calculated in the test cultures and in the control (positive and negative) culture groups. The relative inhibition of the test compound was calculated by the following formula: […]

With `CC(C)CCC[C@@H](C)[C@H]1[C@@H](O)C[C@H]2[C@@H]3CC=C4CCCC[C@]4(C)[C@H]3CC[C@]12C` [Example 1, 16β-Hydroxycholest-5-ene] the “fertilization rate (oocytes cleaved into two-cell embryos)” value [1] was 62%, the melting point was 107 to 108 °C and the “relative GVB (relative effect)” value [2] was 88%. The “GVB (percentage of oocytes undergoing germinal vesicle breakdown)” value [2] was 72%.

For `CC(C)=CCC[C@@H](C)[C@H]1CC=C2C3=C(CC[C@@]21C)[C@@]1(C)CC[C@H](O)C(C)(C)[C@@H]1CC3` [FF-MAS, 4,4-Dimethyl-5α-cholesta-8,14,24-trien-3β-ol], the “induction of meiosis in NO in vitro” value [3] is listed as “induce meiosis”.

For “(25R)-160.26-Dihydroxycholest-5-ene [Example 4]”, the “PB (oocytes with polar body)” value [4] was 5%, the “relative GVB (relative effect)” value [2] was 73% and the “GVB (percentage of oocytes undergoing germinal vesicle breakdown)” value [2] was 63%.
